Test results from patent publication US20220282304A1, “SAME-SAMPLE ANTIBIOTIC SUSCEPTIBILITY TEST AND RELATED COMPOSITIONS, METHODS AND SYSTEMS” (CALIFORNIA INSTITUTE OF TECHNOLOGY, priority 2021, published 2022).

System: Escherichia coli isolate
Test: Same-sample AST, bulk: filtration, RT-ddPCR of 23S rRNA, percent extracellular (Example 1)
Format: cell-based
Settings: 1.0 μg/mL ETP, 37° C. 60 minutes; lower bound of 95% Poisson CI of percent extracellular vs threshold (control mean + 2 SD); three replicates
Experimental: The inoculum was small enough that no detectable difference in the sample's optical density at 600 mm (OD600) was detectable by a spectrophotometer with a sensitivity of 0.01 absorbance units. After an incubation at 37° C., the media became turbid with an OD600 of 0.26 absorbance units after 2 hours of incubation thus providing a bacteria batch culture.
To begin the AST protocol, 10 μL of the above bacteria batch culture was added to and mixed with 15 μL of Mueller-Hinton Broth (MHB) growth media containing 1.67 μg/mL of dissolved ertapenem (ETP) antibiotic to create a test condition antibiotic exposure with a final ETP concentration of 1.0 μg/mL.
In parallel, 10 μL of the batch culture was added to and mixed with 15 μL of Mueller-Hinton Broth (MHB) growth media containing no ETP to create a control condition antibiotic exposure corresponding to the 1 μg/mL test condition. The two antibiotic exposures were incubated at 37° C. for 60 minutes.
The entire volume of each antibiotic exposure was transferred to an individual cellulose acetate filter with a 0.2 μm pore size. Fluid that passes through the filter, called the “filtrate”, was collected in a clean microcentrifuge tube. The antibiotic exposures were centrifuged at 2200 relative centrifugal force to speed the passage of the antibiotic exposure through the filter and into the collecting vessel. […]

## C[C@@H](O)[C@H]1C(=O)N2C(C(=O)O)=C(S[C@@H]3CN[C@H](C(=O)Nc4cccc(C(=O)O)c4)C3)[C@H](C)[C@H]12 [ETP, ertapenem]
  susceptibility call: susceptible
